This note sets out measurements from ChEMBL document CHEMBL1157996, “Guttiferone F, the first prenylated benzophenone from Allanblackia stuhlmannii” (J Nat Prod, 1999).

In this experiment the test system is Human immunodeficiency virus 1. As to the kind of experiment: Antiviral activity against HIV1 assessed as protection against virus-induced cytopathogenicity. Type of experiment: functional, organism-based. (Protection from cytopathic effect is a common read-out in antiviral testing.)

Structures are written as SMILES. In brackets after ≈: the same amount, converted by molar mass.

As for `C=C(C)[C@H](CC=C(C)C)C[C@@]12C[C@@H](CC=C(C)C)C(C)(C)[C@@](CC=C(C)C)(C(=O)C(C(=O)c3ccc(O)c(O)c3)=C1O)C2=O` [GUTTIFERONE F], the EC50 stood at 23 µg/mL (≈ 38.2 µM).

A word on the EC50: it is the midpoint of the concentration-response curve.
